The source of these data is patent publication US20250145633A1, “SUBSTITUTED FURANOPYRIMIDINE COMPOUNDS AS PDE1 INHIBITORS” (Dart NeuroScience, LLC, priority 2017, published 2025).

The target in the assay is human PDE1B enzyme (Homo sapiens (Human), UniProt Q01064). As to the kind of experiment: IMAP TR-FRET PDE1B enzymatic assay. In kind it is biochemical. The conditions noted are these: negative log of half-maximal molar inhibitory concentration, 200 nM FAM-cAMP, values given as bins; for IC50: read-out: PDE1b (pIC50) (converted). In outline: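 Full-length GST-tagged human PDE1B (250 pg/well) in IMAP BSA buffer with 10 U/ml calmodulin and 2.5 mM CaCl2; compound pre-incubated 5 min at room temperature, then 200 nM (final) FAM-cAMP for 30 min. IMAP binding reagent/Tb added, 1 h; TR-FRET 520/490 ratio read. IC50 from sigmoidal dose-response fit.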
(In general: TR-FRET usually uses a lanthanide donor and a delayed reading to cut background.)

On to `Cc1oc2ncnc(NC3(C)CC3)c2c1C(=O)N1CCn2c(C(F)(F)F)nc(C3CCOCC3)c2C1` [Example 638, 6-Methyl-N-(1-methylcyclopropyl)-5-[1-(oxan-4-yl)-3-(trifluoromethyl)-5H,6H,7H,8H-imidazo[1,5-a]pyrazine-7-carbonyl]furo[2,3-d]pyrimidin-4-amine], for which the IC50 was 100 to 1000 nM. The same measure, in the same setting: for `Cc1oc2ncnc(NC3(C)CC3)c2c1C(=O)N1CCn2c(C)nc(C3CCOCC3)c2C1` [Example 639, 6-Methyl-5-[3-methyl-1-(oxan-4-yl)-5H,6H,7H,8H-imidazo[1,5-a]pyrazine-7-carbonyl]-N-(1-methylcyclopropyl)furo[2,3-d]pyrimidin-4-amine] the value was 100 to 1000 nM.

For the molecule `Cc1oc2ncnc(NC3(C)CC3)c2c1C(=O)N1CCn2cncc2C1` [Example 640, 5-{5H,6H,7H,8H-Imidazo[1,5-a]pyrazine-7-carbonyl}-6-methyl-N-(1-methylcyclopropyl)furo[2,3-d]pyrimidin-4-amine], the IC50 was 100 to 1000 nM. With `Cc1oc2ncnc(NC3(C)CC3)c2c1C(=O)N1CCn2ncc(Br)c2C1` [Example 641, 5-{3-Bromo-4H,5H,6H,7H-pyrazolo[1,5-a]pyrazine-5-carbonyl}-6-methyl-N-(1-methylcyclopropyl)furo[2,3-d]pyrimidin-4-amine], the IC50 was 100 to 1000 nM. Still for that read-out and setting: the same measure for `Cc1oc2ncnc(NC3(C)CC3)c2c1C(=O)N1CCc2cc(Cl)ncc2C1` [Example 642, 5-(6-Chloro-1,2,3,4-tetrahydro-2,7-naphthyridine-2-carbonyl)-6-methyl-N-(1-methylcyclopropyl)furo[2,3-d]pyrimidin-4-amine]: 10 to 100 nM; for `CON(C)C(=O)c1c(C)oc2ncnc(NC3(C)CC3)c12` [Example 643, N-Methoxy-N,6-dimethyl-4-[(1-methylcyclopropyl)amino]furo[2,3-d]pyrimidine-5-carboxamide]: 100 to 1000 nM.

For `Cc1oc2ncnc(NC3(C)CC3)c2c1C(=O)NCc1ccnc(C(C)C)n1` [Example 644, 6-Methyl-4-[(1-methylcyclopropyl)amino]-N-{[2-(propan-2-yl)pyrimidin-4-yl]methyl}furo[2,3-d]pyrimidine-5-carboxamide], the IC50 is 10 to 100 nM.

Turning to `Cc1oc2ncnc(NC3(C)CC3)c2c1C(=O)Nc1cnn(C2CC2)c1` [Example 645, N-(1-Cyclopropyl-1H-pyrazol-4-yl)-6-methyl-4-[(1-methylcyclopropyl)amino]furo[2,3-d]pyrimidine-5-carboxamide], the IC50 is 10 to 100 nM.

`Cc1oc2ncnc(NC3(C)CC3)c2c1C(=O)NCc1cnn(C)c1` [Example 646, 6-Methyl-N-[(1-methyl-1H-pyrazol-4-yl)methyl]-4-[(1-methylcyclopropyl)amino]furo[2,3-d]pyrimidine-5-carboxamide]: the IC50 was 10 to 100 nM.

Consider `Cc1oc2ncnc(NC3(C)CC3)c2c1C(=O)NCc1cncnc1` [Example 647, 6-Methyl-4-[(1-methylcyclopropyl)amino]-N-(pyrimidin-5-ylmethyl)furo[2,3-d]pyrimidine-5-carboxamide], for which the IC50 was 100 to 1000 nM. Turning to `Cc1oc2ncnc(NC3(C)CC3)c2c1C(=O)NCc1ncc2c(n1)CCC2` [Example 648, N-{5H,6H,7H-Cyclopenta[d]pyrimidin-2-ylmethyl}-6-methyl-4-[(1-methylcyclopropyl)amino]furo[2,3-d]pyrimidine-5-carboxamide], the “PDE1b (pIC50)” value was over 8. On the same count and under the same terms, the same measure for `Cc1cc(C(F)(F)F)nc(CNC(=O)c2c(C)oc3ncnc(NC4(C)CC4)c23)n1` [Example 649, 6-Methyl-N-{[4-methyl-6-(trifluoromethyl)pyrimidin-2-yl]methyl}-4-[(1-methylcyclopropyl)amino]furo[2,3-d]pyrimidine-5-carboxamide]: over 8. With `Cc1oc2ncnc(NC3(C)CC3)c2c1C(=O)NC1CCN(c2ccccn2)CC1` [Example 650, 6-Methyl-4-[(1-methylcyclopropyl)amino]-N-[1-(pyridin-2-yl)piperidin-4-yl]furo[2,3-d]pyrimidine-5-carboxamide], the IC50 is 10 to 100 nM.

On to `Cc1nc2cc(NC(=O)c3c(C)oc4ncnc(NC5(C)CC5)c34)ccc2o1` [Example 651, 6-Methyl-N-(2-methyl-1,3-benzoxazol-5-yl)-4-[(1-methylcyclopropyl)amino]furo[2,3-d]pyrimidine-5-carboxamide], for which the IC50 is 10 to 100 nM. Still for that read-out and setting: for `Cc1oc2ncnc(NC3(C)CC3)c2c1C(=O)NCc1ccncn1` [Example 652, 6-Methyl-4-[(1-methylcyclopropyl)amino]-N-(pyrimidin-4-ylmethyl)furo[2,3-d]pyrimidine-5-carboxamide] the value was 10 to 100 nM. Still for that read-out and setting: the same measure for `Cc1oc2ncnc(NC3(C)CC3)c2c1C(=O)NCc1ncccn1` [Example 653, 6-Methyl-4-[(1-methylcyclopropyl)amino]-N-(pyrimidin-2-ylmethyl)furo[2,3-d]pyrimidine-5-carboxamide]: 10 to 100 nM; for `Cc1cc(CNC(=O)c2c(C)oc3ncnc(NC4(C)CC4)c23)ncn1` [Example 654, 6-Methyl-4-[(1-methylcyclopropyl)amino]-N-[(6-methylpyrimidin-4-yl)methyl]furo[2,3-d]pyrimidine-5-carboxamide]: 10 to 100 nM; for `Cc1oc2ncnc(NC3(C)CC3)c2c1C(=O)Nc1ccc(N2CCOCC2)cc1` [Example 655, 6-Methyl-4-[(1-methylcyclopropyl)amino]-N-[4-(morpholin-4-yl)phenyl]furo[2,3-d]pyrimidine-5-carboxamide]: 10 to 100 nM. Consider `Cc1oc2ncnc(NC3(C)CC3)c2c1C(=O)Nc1ccc(N2CCOCC2)nn1` [Example 656, 6-Methyl-4-[(1-methylcyclopropyl)amino]-N-[6-(morpholin-4-yl)pyridazin-3-yl]furo[2,3-d]pyrimidine-5-carboxamide], for which the IC50 is 100 to 1000 nM.

On to `Cc1oc2ncnc(NC3(C)CC3)c2c1C(=O)Nc1cnc(N2CCOCC2)nc1` [Example 657, 6-Methyl-4-[(1-methylcyclopropyl)amino]-N-[2-(morpholin-4-yl)pyrimidin-5-yl]furo[2,3-d]pyrimidine-5-carboxamide], for which the IC50 was 10 to 100 nM. For the molecule `Cc1oc2ncnc(NC3(C)CC3)c2c1C(=O)Nc1cnc(N2CCOCC2)cn1` [Example 658, 6-Methyl-4-[(1-methylcyclopropyl)amino]-N-[5-(morpholin-4-yl)pyrazin-2-yl]furo[2,3-d]pyrimidine-5-carboxamide], the IC50 was 10 to 100 nM.

`Cc1ncncc1CNC(=O)c1c(C)oc2ncnc(NC3(C)CC3)c12` [Example 659, 6-Methyl-4-[(1-methylcyclopropyl)amino]-N-[(4-methylpyrimidin-5-yl)methyl]furo[2,3-d]pyrimidine-5-carboxamide]: the IC50 was 10 to 100 nM. Still for that read-out and setting: the same measure for `Cc1oc2ncnc(NC3(C)CC3)c2c1C(=O)NC1CCN(c2cnccn2)CC1` [Example 660, 6-Methyl-4-[(1-methylcyclopropyl)amino]-N-[1-(pyrazin-2-yl)piperidin-4-yl]furo[2,3-d]pyrimidine-5-carboxamide]: 10 to 100 nM; for `Cc1oc2ncnc(NC3(C)CC3)c2c1C(=O)NCc1cc(=O)[nH]cn1` [Example 661, 6-Methyl-4-[(1-methylcyclopropyl)amino]-N-[(6-oxo-1,6-dihydropyrimidin-4-yl)methyl]furo[2,3-d]pyrimidine-5-carboxamide]: 10 to 100 nM; for `Cc1nc(CNC(=O)c2c(C)oc3ncnc(NC4(C)CC4)c23)cc(=O)[nH]1` [Example 662, 6-Methyl-N-[(2-methyl-6-oxo-1,6-dihydropyrimidin-4-yl)methyl]-4-[(1-methylcyclopropyl)amino]furo[2,3-d]pyrimidine-5-carboxamide]: 10 to 100 nM. The same measure, in the same setting: for `COc1ncnc2c1CN(C(=O)c1c(C)oc3ncnc(NC4(C)CC4)c13)CC2` [Example 663, 5-{4-Methoxy-5H,6H,7H,8H-pyrido[4,3-d]pyrimidine-6-carbonyl}-6-methyl-N-(1-methylcyclopropyl)furo[2,3-d]pyrimidin-4-amine] the value was 100 to 1000 nM; for `Cc1oc2ncnc(NC3(C)CC3)c2c1C(=O)NCc1ncc(C(C)C)o1` [Example 664, 6-Methyl-4-[(1-methylcyclopropyl)amino]-N-{[5-(propan-2-yl)-1,3-oxazol-2-yl]methyl}furo[2,3-d]pyrimidine-5-carboxamide], 10 to 100 nM. Take `Cc1oc2ncnc(NC3(C)CC3)c2c1C(=O)NC1CCN(c2ncccn2)CC1` [Example 665, 6-Methyl-4-[(1-methylcyclopropyl)amino]-N-[1-(pyrimidin-2-yl)piperidin-4-yl]furo[2,3-d]pyrimidine-5-carboxamide]: the IC50 was 10 to 100 nM.

As for `COc1cc(CNC(=O)c2c(C)oc3ncnc(NC4(C)CC4)c23)ncn1` [Example 666, N-[(6-Methoxypyrimidin-4-yl)methyl]-6-methyl-4-[(1-methylcyclopropyl)amino]furo[2,3-d]pyrimidine-5-carboxamide], the “PDE1b (pIC50)” value was over 8. With `COc1cc(CNC(=O)c2c(C)oc3ncnc(NC4(C)CC4)c23)nc(C)n1` [Example 667, N-[(6-Methoxy-2-methylpyrimidin-4-yl)methyl]-6-methyl-4-[(1-methylcyclopropyl)amino]furo[2,3-d]pyrimidine-5-carboxamide], the “PDE1b (pIC50)” value is recorded as over 8. As for `Cc1oc2ncnc(NC3(C)CC3)c2c1C(=O)N1CCc2cnccc2C1` [Example 668, 6-Methyl-N-(1-methylcyclopropyl)-5-(1,2,3,4-tetrahydro-2,6-naphthyridine-2-carbonyl)furo[2,3-d]pyrimidin-4-amine], the IC50 is 10 to 100 nM. As to `Cc1oc2ncnc(NC3(C)CC3)c2c1C(=O)NC1CCN(c2ccccn2)C1` (centres unmarked) [Example 669, 6-Methyl-4-[(1-methylcyclopropyl)amino]-N-[1-(pyridin-2-yl)pyrrolidin-3-yl]furo[2,3-d]pyrimidine-5-carboxamide], the IC50 is 10 to 100 nM.
